System: ARPE-19 cells
Experiment: Lysosomal pH (pHL) with LysoSensor Yellow/Blue, high through-put screen
Format: cell-based, human
Conditions: for effect on pHL of cells treated with tamoxifen: tamoxifen concentration not stated, A68930 and A77636 at 1 μM; for effect on pHL, agent alone: cells without other alkalinizing agent, NH4Cl 10 mM, BAF 200 nM, CHQ 20 μM, CFTR-172 10 μM, LDL 10 μg/ml, others not given; for effect on pHL of cells treated with 30 μM tamoxifen: CFTRAct16 at 10 μM
Protocol: Lysosensor Yellow/Blue co-localized with the Lysotracker Red dye in small vesicles, with a distribution consistent with lysosomal origin. Measurements of pHL were performed using a high throughput screening (HTS) protocol to maximize output and minimize variation using ARPE-19 cells in 96 well plates. […] Loading for 5 min. at 23° C. with 5 μM lysosensor, followed by 15 min. for internalization, produced stable and reproducible results.
The ratio was converted to pH by calibrating with KCl buffered to pH 4.0-6.0 in the presence of monensin and nigericin. Calibration indicated a baseline pH of 4.4 to 4.5, supporting lysosomal localization. […] NH4Cl decreased the ratios slightly at 380 nm. Nevertheless, absent the addition of the dye, none of these compounds, or any others, altered the fluorescent signal at 340 or 380 nm, showing a specificity of the measured change to pHL. […] This quantification is necessary to predict the potential effectiveness of acidifying drugs to restore lysosomal enzyme activity.
Extensive trials determined that the optimal response is obtained with 5 minute dye loading and 15 minute post-incubation. […] All reagents were from Sigma Chemical Corp. unless otherwise indicated.
In general, each condition below used 3-12 independent wells per plate, in 3-6 separate plates. As levels from individual plates varied, data was normalized to the mean pHL for control wells from each plate. Fluorescent ratios were converted to pH following calibration performed on each plate as described. Incubation with Lysosensor Yellow/Blue was kept constant and all measurements were performed 15 min after removal of dye from the bath to ensure continuity. Significance was determined with a one-way ANOVA and Tukey post test. Drugs were always tested on control cells to ensure modification of healthy RPE cells was minimal, and cells were not exposed to dye to make sure effects were specific. All background was subtracted from the fluorescence excited at 340 and 380 nm independently before calculation of the ratio.

With `Nc1ncnc2c1nc(Br)n2[C@@H]1O[C@@H]2COP(=O)(O)O[C@H]2[C@H]1O` [8-Br-cAMP, 8-bromo-adenosine 3′,5′-cyclic monophosphate] the “effect on pHL of cells treated with 10 μM tamoxifen” value was “not significant”.
With `C[C@]12CC[C@@H]3c4ccc(O)cc4CC[C@H]3[C@@H]1CC[C@@H]2O` [17-β estradiol] the “effect on pHL of cells treated with tamoxifen” value (from here on “effect on pHL … with tamoxifen”) was “neither mimicked, nor inhibited”.
For `O=C(O)c1ccc(/C=C2\SC(=S)N(c3cccc(C(F)(F)F)c3)C2=O)cc1` [CFTR-172], the “effect on pHL, agent alone” value was “increased lysosomal pH”.
For `OC[C@H]1O[C@@H](n2cnc3c(NC4CCCC4)ncnc32)[C@H](O)[C@@H]1O` [CPA, N^6-cyclopentyl-adenosine], the “effect on pHL … with tamoxifen” value was “had no effect”.
In the case of `OC[C@H]1O[C@@H](n2cnc3c(NC4CC5CCC4C5)ncnc32)[C@H](O)[C@@H]1O` (stereo partly drawn) [ENBA, (2S)-N^6-[2-endo-norbornyl]adenosine], the “effect on pHL … with tamoxifen” value is reported as “had no effect”.
With `CSc1nc(N)c2ncn([C@@H]3O[C@H](COP(=O)(O)OP(=O)(O)O)[C@@H](O)[C@H]3O)c2n1` [MeSADP] the “effect on pHL, agent alone” value was “elevated the lysosomal pHL”.
For `O=C(O)c1cc([N+](=O)[O-])ccc1NCCCc1ccccc1` [NPPB, 5-nitro-2-(3-phenylpropylamino)-benzoate], the “effect on pHL … with tamoxifen” value was “reversed”.
In the case of `CO/C1=C\C(C)=C\[C@@H](C)[C@@H](O)[C@@H](C)C/C(C)=C/C=C/[C@H](OC)[C@@H]([C@@H](C)[C@@H](O)[C@H](C)[C@@]2(O)C[C@@H](O)[C@H](C)[C@@H](C(C)C)O2)OC1=O` [bafilomycin-A], the “effect on pHL, agent alone” value is reported as “pH was elevated”.
`Nc1ncnc2c1nc(Sc1ccc(Cl)cc1)n2[C@@H]1O[C@@H]2COP(=O)([O-])O[C@H]2[C@H]1O.[Na+]` [cpt-cAMP, 8-(4-chlorophenylthio) adenosine-3′,5′-cyclic monophosphate] was tested, and the “effect on pHL of cells treated with 10 μM tamoxifen” value was “significantly decreased pHL” and the “effect on pHL of cells treated with 30 μM tamoxifen” value (“effect … with 30 μM tamoxifen” for short) was “significantly decreased pHL”.
With `CCN[C@H]1C[C@H](C)S(=O)(=O)c2sc(S(N)(=O)=O)cc21` [dorzolamide] the “effect … with 30 μM tamoxifen” value was “did not lower pHL”.
In the case of `CNC[C@H](O)c1ccc(O)c(O)c1` [epinephrine], the “effect on pHL … with tamoxifen” value is reported as “significantly decrease pHL”.
`O=c1c(-c2ccc(O)cc2)coc2cc(O)cc(O)c12` [genistein] was tested, and the “effect on pHL, agent alone” value was “smaller effects” and the “effect on pHL … with tamoxifen” value was “acidified lysosomes”.
`COc1ccc(Cl)cc1C(=O)NCCc1ccc(S(=O)(=O)NC(=O)NC2CCCCC2)cc1` [glybenclamide] was tested, and the “effect on pHL, agent alone” value was “smaller effects” and the “effect on pHL … with tamoxifen” value was “increased pHL”.
`CC(C)NCC(O)c1ccc(O)c(O)c1` (stereo not drawn) [isoproterenol] was tested, and the “effect on pHL … with tamoxifen” value was “significantly decrease pHL”.
For `CC(C)OC(=O)CCC/C=C\C[C@@H]1[C@@H](CC[C@@H](O)CCc2ccccc2)[C@H](O)C[C@@H]1O` [latanaprost], the “effect … with 30 μM tamoxifen” value was “did not lower pHL”.
In the case of `NC[C@H](O)c1ccc(O)c(O)c1` [norepinephrine], the “effect on pHL of cells treated with chloroquine” value (chloroquine (20 μM with CGS21680 100 nM)) is reported as “reduced pHL” and the “effect on pHL … with tamoxifen” value is reported as “significantly decrease pHL”.
In the case of `CNC[C@H](O)c1cccc(O)c1` [phenylephrine], the “effect on pHL … with tamoxifen” value is reported as “no significant effect on pHL”.
`CN[C@@H]1C[C@H]2O[C@@](C)([C@@H]1OC)n1c3ccccc3c3c4c(c5c6ccccc6n2c5c31)C(=O)NC4` [staurosporine] was tested, and the “effect on pHL … with tamoxifen” value was “decrease in lysosomal pH”.
In the case of `CC(C)(C)NC[C@H](O)COc1nsnc1N1CCOCC1` [timolol], the “effect … with 30 μM tamoxifen” value is reported as “did not lower pHL” and the “effect on the reduction of pHL triggered by norepinephrine” value (cells treated with tamoxifen plus norepinephrine) is reported as “blocked”.

Reference: US8828966B2, “Method for treatment of macular degeneration by modulating P2Y12 or P2X7 receptors” (priority 2006, dated 2014)
